The results in this text go back to US20120178124A1, “STEROL SIDE CHAIN-CLEAVING ENZYME PROTEIN AND USE THEREOF” (MITSUBISHI CHEMICAL CORPORATION, priority 2009, published 2012).

For one series, the system named is CYP204A1. The settings on record: strain BP172, same reaction as Example 6 (28° C., 5 hours). How it is done:
Novosphingobium aromaticivorans (ATCC 700278) was inoculated into an L medium, and it was then cultured at 30° C. for 2 days. Thereafter, genomic DNA was extracted from the cell mass obtained in the same manner as that of Example 1. A fragment comprising a CYPSS204A1 gene and a ferredoxin gene located downstream thereof was amplified from the above-described genomic DNA by using a primer CYP-5F (SEQ ID NO: 9) and a primer CYP-6R (SEQ ID NO: 10) and also using La Taq polymerase (manufactured by Takara Bio INC.). The temperature conditions applied during this operation were 94° C./3 min, 30 cycles of (98° C./20 sec, 63° C./30 sec, and 68° C./2 min), and 72° C./5 min.
Escherichia coli BL21(DE3) was transformed with this plasmid, and the obtained cell strain was named as BP172.
The Escherichia coli expression strain BP215 was inoculated into 2 ml of an M9 mix medium (Na2HPO4: 0.68%, KH2PO4: 0.3%, NaCl: 0.05%, NH4C;: 0.01%, Casamino acid: 1%, D-Glucose: 0.4%, CaCl2: 0.1 mM, MgCl2: 1 mM, Thiamine: 0.002%, FeSO4: 0.1 mM, Carbenicillin: 0.005%), and it was then subjected to shaking culture at 30° C. for 17 hours, so as to obtain pre-culture solution. 0.25 ml of this pre-culture solution was inoculated into 25 ml of the main culture medium (Na2HPO4: 0.68%, KH2PO4: 0.3%, NaCl: 0.05%, NH4Cl: 0.01%, Casamino acid: 1%, CaCl2: 0.1 mM, MgCl2: 1 mM, Thiamine: 0.002%, FeSO4: 0.1 mM, Carbenicillin: 0.005%, Overnight Express™ solution: 7%, 5-Aminolevlic acid: 0.008%) using Overnight Express™ Autoinduction System (Novagen Cat. No. 71300-4), and it was then subjected to shaking culture at 25° C. for 24 hours. 5 ml of the obtained main culture solution was centrifuged (3500 rpm, 10 minutes) to obtain cell mass, and 1 ml of CV2 buffer (50 mM (pH) potassium phosphate buffer containing glycerol: 2%, carbenicillin: 0.005%, and isopropyl β-D-1-thiogalactopyranoside: 0.1 mM) was added to the obtained cell mass. Thereafter, 0.01 ml of the methanol solution of 1% 4-cholesten-3-one and 0.02 ml of an aqueous solution of 25% methyl-β-cyclodextrin were added to the mixed solution, and the obtained mixture was then shaken at 28° C. for 5 hours for the reaction. After completion of the reaction, 4 ml of methanol was added to the reaction solution, and they were then fully mixed. The obtained mixture was centrifuged, and the upper layer was then analyzed by HPLC.
As substrates, 4-cholesten-3-one, cholesterol, 7-dehydrocholesterol, ergosterol, 13-sitosterol, stigmasterol, campesterol, desmosterol, (20S)-20-hydroxycholest-4-en-3-one, (22R)-22-hydroxycholest-4-en-3-one, (20R,22R)-20,22-dihydroxycholest-4-en-3-one, and (20R,22S)-20,22-dihydroxycholest-4-en-3-one were used. Each substrate was subjected to the same reaction as that of Example 6, separately, and the generated product was then analyzed by HPLC.

The target of series [1] is T1, Sphingomonas subterranea NBRC16086 P450scc CYPSS204A (CYPSS), wild type, SEQ ID NO: 2 (Novosphingobium subterraneum, UniProt A0A0B8ZS99).
T1 sequence (A0A0B8ZS99 1-472): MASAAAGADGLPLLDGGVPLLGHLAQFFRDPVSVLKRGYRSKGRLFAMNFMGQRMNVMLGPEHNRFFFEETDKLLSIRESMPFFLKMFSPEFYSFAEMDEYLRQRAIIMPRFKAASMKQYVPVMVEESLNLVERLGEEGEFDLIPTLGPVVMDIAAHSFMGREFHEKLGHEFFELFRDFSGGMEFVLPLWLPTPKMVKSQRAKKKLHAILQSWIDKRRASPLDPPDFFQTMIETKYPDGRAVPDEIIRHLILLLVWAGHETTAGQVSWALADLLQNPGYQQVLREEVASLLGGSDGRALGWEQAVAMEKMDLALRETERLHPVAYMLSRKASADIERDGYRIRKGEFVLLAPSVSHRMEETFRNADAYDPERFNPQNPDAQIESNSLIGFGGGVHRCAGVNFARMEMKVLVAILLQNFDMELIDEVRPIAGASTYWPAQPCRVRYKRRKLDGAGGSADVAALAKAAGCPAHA
As to the kind of experiment: Kinetics analysis of CYPSS with 4-cholesten-3-one (conversion to progesterone, cell-free extract).

Series [2] concerns the target T2, Novosphingobium aromaticivorans ATCC 700278 P450scc CYP204A1, wild type, SEQ ID NO: 23 (Novosphingobium aromaticivorans, UniProt A4XF07).
T2 sequence (A4XF07 1-473): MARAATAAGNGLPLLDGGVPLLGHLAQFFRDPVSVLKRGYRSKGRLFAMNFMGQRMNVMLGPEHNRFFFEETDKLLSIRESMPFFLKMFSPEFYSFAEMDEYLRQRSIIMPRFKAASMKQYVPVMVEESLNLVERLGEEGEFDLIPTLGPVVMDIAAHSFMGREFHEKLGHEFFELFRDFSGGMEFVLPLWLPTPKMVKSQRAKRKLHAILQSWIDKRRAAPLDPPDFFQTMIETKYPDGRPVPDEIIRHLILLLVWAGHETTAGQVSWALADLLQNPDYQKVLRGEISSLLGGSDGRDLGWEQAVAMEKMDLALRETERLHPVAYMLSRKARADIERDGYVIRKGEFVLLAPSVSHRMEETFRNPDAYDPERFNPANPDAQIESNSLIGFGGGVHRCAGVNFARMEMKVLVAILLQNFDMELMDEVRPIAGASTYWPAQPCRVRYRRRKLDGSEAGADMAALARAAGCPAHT
As to the kind of experiment: Kinetics analysis of CYP204A1 with 4-cholesten-3-one (conversion to progesterone, cell-free extract).

Substrate in series [3]: CC(C)CCC[C@@H](C)[C@H]1CC[C@H]2[C@@H]3CCC4=CC(=O)CC[C@]4(C)[C@H]3CC[C@]12C
As to the kind of experiment: purified protein, by the assay type. To be noted: other: 4-cholesten-3-one 0.1 to 500 μM, pH 7.5, 15° C., 60 minutes, Lineweaver-Burk plot.

The mark [4] stands for this setting: 4-cholesten-3-one 0.1 to 500 μM, pH 7.5, 15° C., 60 minutes, Lineweaver-Burk plot.
Where [5] appears, read: substrate concentration increased from 10 μM to 100 μM, pH 7.5, 15° C.

The Km is the concentration of substrate that gives half-maximal velocity.

“Also recorded” adds a separate entry of the source. Read-outs that look alike come from different tables or passages of the source.

For `CC(C)CCC[C@@H](C)[C@H]1CC[C@H]2[C@@H]3CCC4=CC(=O)CC[C@]4(C)[C@H]3CC[C@]12C` [4-cholesten-3-one], the values for the Conversion rate in the series on CYP204A1 and in the series on CYP204A1 (listed as 4Chol) were 84.0% and 84%, respectively. The Vmax in series [1] (setting [4]) is listed as 78.7 mmol/min/mol; in series [2] (setting [4]), 47.4 mmol/min/mol. Besides, the substrate inhibition result in series [1] (4-cholesten-3-one, in words) is recorded as “hardly undergoes substrate inhibition; also recorded: substrate inhibition of CYPSS was lower than that of CYP204A1”. In addition, the “Vmax, times higher than that of CYP204A1” value in series [1] (compared with CYP204A1) is “approximately 1.7 times”. In addition, the “Vmax, relative activity” value in series [1] (relative to CYP204A1 (1.00)) was 1.66; in series [2] (relative to CYP204A1 (1.00)) it was 1.00. Also, the “decrease rate of the enzyme protein activity (substrate inhibition)” value in series [1] (setting [5]) is 10%; in series [2] (setting [5]), 33%.

B1: Sphingomonas subterranea NBRC16086 P450scc CYPSS204A (CYPSS), wild type, SEQ ID NO: 2 (Novosphingobium subterraneum) (protein)
chain: T1 sequence (A0A0B8ZS99 1-472)
Consider B1, for which, in series [3], the Km was 1.1 µM.
